Measured values as given in paper PMC12457209, “Jianpi‐Huogu Prescription Repairs Nontraumatic Osteonecrosis of the Femoral Head by Inhibiting NAMPT/STK11/HMGCR/ACAT1 Axis‐Mediated Lipid Production” (Journal of Cellular and Molecular Medicine, 2025).

Molecular target: T1, NMNAT1 (Nicotinamide Nucleotide Adenylyl Transferase 1) (Homo sapiens, UniProt Q9HAN9)
T1 construct: amine-coupled to CM5 chip
Assay: SPR, Biacore T200, immobilised protein
Type: binding
Conditions: PBS, 5% DMSO, 0.5% P20, pH 7.4; compound 1.56 to 50 μM

T1 sequence (Q9HAN9 whole entry): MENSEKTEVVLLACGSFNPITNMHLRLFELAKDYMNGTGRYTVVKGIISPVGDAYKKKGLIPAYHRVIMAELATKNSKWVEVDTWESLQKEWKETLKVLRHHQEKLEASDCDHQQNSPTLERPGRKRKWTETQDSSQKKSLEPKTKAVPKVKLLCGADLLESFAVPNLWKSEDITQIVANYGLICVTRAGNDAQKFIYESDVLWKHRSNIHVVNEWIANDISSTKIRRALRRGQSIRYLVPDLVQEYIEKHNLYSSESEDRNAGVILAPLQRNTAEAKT

## CCC/C=C1\OC(=O)C2=C1CC[C@@H](O)[C@H]2O [senkyunolide H]
  SPR, Biacore T200, immobilised protein: SPR analysis confirmed direct and specific binding of these compounds to NMNAT1

## COc1cc(/C=C/C(=O)O)ccc1O [ferulic acid]
  SPR, Biacore T200, immobilised protein: SPR analysis confirmed direct and specific binding of these compounds to NMNAT1

## Nc1nc2c(ncn2[C@@H]2O[C@H](CO)[C@@H](O)[C@H]2O)c(=O)[nH]1 [guanosine]
  SPR, Biacore T200, immobilised protein: SPR analysis confirmed direct and specific binding of these compounds to NMNAT1

## COc1cc(-c2cc(=O)c3c(O)c(O)c(OC)cc3o2)ccc1O [5,6,4′‐trihydroxy‐7,3′‐dimethoxyflavone]
  SPR, Biacore T200, immobilised protein: SPR analysis confirmed direct and specific binding of these compounds to NMNAT1
